Laboratory results taken from patent US20220031800A1, “PEPTIDES FOR TREATING NON-EXUDATIVE MACULAR DEGENERATION AND OTHER DISORDERS OF THE EYE” (Allegro Pharmaceuticals, LLC, priority 2019, published 2022).
“And” between values parts separate entries of the source, which are not always exact repeats. Equal entries are not always repeated. Square brackets hold non-standard residues; d marks the D form. Peptide text beside a SMILES is read from it. Cya = N[C@@H](CS(=O)(=O)O)C(=O)O

Test system: study eye of subjects with intermediate non-exudative AMD
Test: SD-OCT Analysis 2 (thickness, volume, map coverage of retinal layers)
Type: in vivo, human
Details: change from baseline at Week 32
Description: Numerous study assessments were conducted at various time points throughout the study. Included among these study assessments were; refractive eye examinations, determinations of BCVA AND low-luminance BCVA, Lanthony D-15 color vision test, measurement of intraocular pressure (IOP), Indirect ophthalmoscopy/dilated fundus examinations and spectral-domain optical coherence tomography (SD-OCT). Also, blood and saliva samples were obtained from each subject for genetic analysis. The above-listed study assessments were performed at the time points indicated in Table 1, below: The OCT scans were analyzed by two (2) unrelated experts. In Analysis #2, the OCT images of study eyes were analyzed to determine mean thickness and mean volume of numerous retinal subfields and layer segments at baseline and at Week 12 for sham eyes and at baseline and at Week 32 for risuteganib eyes, to document any significant differences between groups of eyes based on baseline measurements or changes from baseline in those measurements. In addition to the quantitative analysis of OCT images, OCT Analysis #2 included qualitative assessment of the OCT images to identify GA, pseudodrusen, and disruption of the ELM and EZ layers. FIGS. 9A, 9B and 9C illustrate the level of varying pathology within the ELM based on quantitative mapping that were also assessed, with FIG. 9A (left) showing no ELM disruption, FIG. 9B (center) showing segmental disruption, and FIG. 9C showing diffuse disruption.

[1] = risuteganib nonresponder eyes, n = 12
[2] = risuteganib responder eyes, n = 12
[3] = risuteganib super-responder eyes, n = 8

C[C@@H](O)[C@H](NC(=O)[C@H](CS(=O)(=O)O)NC(=O)CNC(=O)[C@H](CCCNC(=N)N)NC(=O)CN)C(=O)N1CCC[C@H]1C(=O)O [risuteganib, Glycyl-L-arginylglycyl-3-sulfo-L-alanyl-L-threonyl-L-proline] (H-GRG[Cya]TP-OH)
Change in mean thickness, Inner retina mid subfield [1]: 2.274 μm | Change in mean thickness, ONL-EZ central subfield [1]: −6.486 μm | Change in mean thickness, ONL-EZ mid subfield [1]: −4.522 μm | Change in mean thickness, ONL-RPE central subfield [1]: −7.877 μm | Change in mean thickness, ONL-RPE foveal center [1]: −7.626 μm | Change in mean thickness, ONL-RPE mid subfield [1]: −6.320 μm | Change in mean thickness, RPE-BM central subfield [1]: −0.118 μm | Change in mean thickness, RPE-BM foveal center [1]: −3.740 μm | Change in mean thickness, RPE-BM mid subfield [1]: 1.114 μm | Change in mean thickness, Total retinal central subfield [1]: −5.981 μm | Change in mean thickness, Total retinal foveal center [1]: −9.112 μm | Change in mean thickness, Total retinal mid subfield [1]: −4.046 μm | Change in volume, ELM-EZ central subfield [1]: −0.001 mm^3 | Change in volume, ELM-EZ mid subfield [1]: 0.002 mm^3 | Change in volume, ELM-RPE [1]: 0.009 mm^3 | Change in volume, ELM-RPE central subfield [1]: −0.002 mm^3 | Change in volume, ELM-RPE mid subfield [1]: −0.003 mm^3 | Change in volume, EZ-RPE [1]: 0.005 mm^3 | Change in volume, EZ-RPE central subfield [1]: −0.001 mm^3 | Change in volume, EZ-RPE mid subfield [1]: −0.006 mm^3 | Change in volume, ONL-EZ central subfield [1]: −0.005 mm^3 | Change in volume, ONL-EZ mid subfield [1]: −0.014 mm^3 | Change in volume, ONL-RPE [1]: −0.026 mm^3 | Change in volume, ONL-RPE central subfield [1]: −0.006 mm^3 | Change in volume, ONL-RPE mid subfield [1]: −0.020 mm^3 | Change in volume, RPE-BM [1]: 0.037 mm^3 | Change in volume, RPE-BM central subfield [1]: 0.000 mm^3 | Change in volume, RPE-BM mid subfield [1]: 0.004 mm^3 | Change in volume, Total retinal [1]: 0.091 mm^3 | Change in volume, Total retinal central subfield [1]: −0.004 mm^3 | Change in volume, Total retinal mid subfield [1]: −0.012 mm^3 | Map coverage, 0 μm EZ [1]: 1.469% | Map coverage, 0 μm RPE-BM [1]: 1.465% | Map coverage, 10 μm EZ [1]: 1.332% | Map coverage, 20 μm EZ [1]: 1.288% | Map coverage, 50 μm RPE-BM [1]: −1.794% | Map coverage, 150 μm RPE-BM [1]: 2.143% | Map coverage, 250 μm RPE-BM [1]: 0.000% | Change in mean thickness, ELM-EZ central subfield [2]: −2.322 μm | Change in mean thickness, ELM-EZ mid subfield [2]: −0.967 μm | Change in mean thickness, ELM-RPE central subfield [2]: −3.102 μm | Change in mean thickness, ELM-RPE foveal center [2]: −0.000 μm and 0.000 μm | Change in mean thickness, ELM-RPE mid subfield [2]: −2.141 μm | Change in mean thickness, EZ-RPE central subfield [2]: −0.779 μm | Change in mean thickness, EZ-RPE foveal center [2]: 0.975 μm | Change in mean thickness, EZ-RPE mid subfield [2]: −1.174 μm | Change in mean thickness, Inner retina central subfield [2]: 5.864 μm | Change in mean thickness, Inner retina mid subfield [2]: 5.512 μm | Change in mean thickness, ONL-EZ central subfield [2]: −5.775 μm | Change in mean thickness, ONL-EZ mid subfield [2]: −5.386 μm | Change in mean thickness, ONL-RPE central subfield [2]: −6.555 μm | Change in mean thickness, ONL-RPE foveal center [2]: 0.650 μm | Change in mean thickness, ONL-RPE mid subfield [2]: −6.561 μm | Change in mean thickness, RPE-BM central subfield [2]: −8.238 μm | Change in mean thickness, RPE-BM foveal center [2]: −12.512 μm | Change in mean thickness, RPE-BM mid subfield [2]: −5.287 μm | Change in mean thickness, Total retinal central subfield [2]: −0.691 μm | Change in mean thickness, Total retinal foveal center [2]: 0.804 μm | Change in mean thickness, Total retinal mid subfield [2]: −1.049 μm | Change in volume, ELM-EZ central subfield [2]: −0.002 mm^3 | Change in volume, ELM-EZ mid subfield [2]: −0.003 mm^3 | Change in volume, ELM-RPE [2]: 0.086 mm^3 | Change in volume, ELM-RPE central subfield [2]: −0.002 mm^3 | Change in volume, ELM-RPE mid subfield [2]: −0.007 mm^3 | Change in volume, EZ-RPE [2]: −0.059 mm^3 | Change in volume, EZ-RPE central subfield [2]: −0.001 mm^3 | Change in volume, EZ-RPE mid subfield [2]: −0.004 mm^3 | Change in volume, ONL-EZ central subfield [2]: −0.004 mm^3 | Change in volume, ONL-EZ mid subfield [2]: −0.017 mm^3 | Change in volume, ONL-RPE [2]: 0.009 mm^3 | Change in volume, ONL-RPE central subfield [2]: −0.005 mm^3 | Change in volume, ONL-RPE mid subfield [2]: −0.021 mm^3 | Change in volume, RPE-BM [2]: −0.049 mm^3 | Change in volume, RPE-BM central subfield [2]: −0.007 mm^3 | Change in volume, RPE-BM mid subfield [2]: −0.017 mm^3 | Change in volume, Total retinal [2]: −0.188 mm^3 | Change in volume, Total retinal central subfield [2]: 0.000 mm^3 | Change in volume, Total retinal mid subfield [2]: −0.004 mm^3 | Map coverage, 0 μm EZ [2]: 3.679% | Map coverage, 0 μm RPE-BM [2]: 1.099% | Map coverage, 10 μm EZ [2]: 3.699% | Map coverage, 20 μm EZ [2]: 3.574% | Map coverage, 50 μm RPE-BM [2]: −3.494% | Map coverage, 150 μm RPE-BM [2]: 3.335% | Map coverage, 250 μm RPE-BM [2]: −0.011% | Change in mean thickness, ELM-EZ central subfield [3]: −1.658 μm | Change in mean thickness, ELM-EZ mid subfield [3]: −1.049 μm | Change in mean thickness, ELM-RPE central subfield [3]: −3.461 μm | Change in mean thickness, ELM-RPE foveal center [3]: 2.925 μm
